Measurements from ChEMBL document CHEMBL4368907 (J Med Chem, 2019).
Active and inactive are the calls of the source. The calls are words filed in the database; no cut-off is given here. Numbered stars: 1 amine (or outer) side, 2 acyl side, 3 side chain; on linkers, the order of the positions; unused ones are H or OH. Square brackets hold non-standard residues; d marks the D form. Peptide text beside a SMILES is read from it. * marks the point of attachment. Phe(4-CH2SO3H) = N[C@@H](Cc1ccc(CS(=O)(=O)O)cc1)C(=O)O; Phenylacetyl(4-OSO3H) = O=C(Cc1ccc(OS(=O)(=O)O)cc1)*; C20 diacid = O=C(O)CCCCCCCCCCCCCCCCCCC(=O)*; sY = N[C@@H](Cc1ccc(OS(=O)(=O)O)cc1)C(=O)O; C18 diacid = O=C(O)CCCCCCCCCCCCCCCCC(=O)*; NMe1Nal = CN[C@@H](Cc1cccc2ccccc12)C(=O)O; γGlu = O=C(O)[C@H](CCC(=O)[*:2])N[*:1]; 1Nal = N[C@@H](Cc1cccc2ccccc12)C(=O)O; C14 diacid = O=C(O)CCCCCCCCCCCCC(=O)*; NMeF = CN[C@@H](Cc1ccccc1)C(=O)O; NMeD = CN[C@@H](CC(=O)O)C(=O)O; dNMeD = CN[C@H](CC(=O)O)C(=O)O; Nle = CCCC[C@H](N)C(=O)O; AEEA = NCCOCCOCC(=O)O

Tests used:
[1] = target: T1, Cholecystokinin receptor type A (Homo sapiens, UniProt P32238); assay: (§1) Displacement of [125I]-CCK-8 from human CCK1R expressed in human 1321N1 cell membranes after 2 hrs by SPA assay
T1 sequence (P32238 whole entry): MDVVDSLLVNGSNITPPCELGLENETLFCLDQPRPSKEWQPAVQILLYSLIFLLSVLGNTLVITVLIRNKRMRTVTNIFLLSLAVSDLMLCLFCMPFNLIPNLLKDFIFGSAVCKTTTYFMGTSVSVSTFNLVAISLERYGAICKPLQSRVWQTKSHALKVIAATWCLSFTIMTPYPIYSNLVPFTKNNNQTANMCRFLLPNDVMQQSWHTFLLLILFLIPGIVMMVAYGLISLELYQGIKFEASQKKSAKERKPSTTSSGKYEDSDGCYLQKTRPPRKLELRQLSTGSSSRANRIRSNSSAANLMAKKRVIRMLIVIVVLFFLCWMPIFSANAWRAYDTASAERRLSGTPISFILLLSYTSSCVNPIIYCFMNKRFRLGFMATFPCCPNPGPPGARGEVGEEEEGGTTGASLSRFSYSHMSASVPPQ

[2] = Terminal half life in Ellegaard Gottingen minipig at 5 nmol/kg, iv by LC-MS/MS analysis; assay type: ADME, organism-based, Sus scrofa; details: pig, in vivo, read-out: beta t1/2 (converted)
[3] = target: T2, Cholecystokinin receptor type A (Homo sapiens) (UniProt P32238); assay: as §1
T2 sequence (whole entry): T1 sequence (P32238 whole entry)

[4] = target: T3, Gastrin/cholecystokinin type B receptor (Homo sapiens) (UniProt P32239); assay: (§2) Displacement of [125I]-CCK-8 from human CCK2R expressed in human 1321N1 cell membranes after 2 hrs by SPA assay
T3 sequence (whole entry): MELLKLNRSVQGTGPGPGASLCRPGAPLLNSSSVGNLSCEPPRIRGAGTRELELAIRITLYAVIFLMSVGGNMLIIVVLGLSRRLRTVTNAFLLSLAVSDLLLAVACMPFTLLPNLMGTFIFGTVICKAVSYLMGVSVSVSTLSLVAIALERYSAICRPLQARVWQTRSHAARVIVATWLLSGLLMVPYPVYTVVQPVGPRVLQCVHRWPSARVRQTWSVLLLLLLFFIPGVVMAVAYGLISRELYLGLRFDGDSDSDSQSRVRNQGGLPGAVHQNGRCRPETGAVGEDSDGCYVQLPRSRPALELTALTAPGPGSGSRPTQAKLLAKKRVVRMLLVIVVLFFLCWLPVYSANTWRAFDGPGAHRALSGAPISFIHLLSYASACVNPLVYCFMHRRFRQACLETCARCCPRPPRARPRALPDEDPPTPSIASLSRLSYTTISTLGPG

[5] = target: T2, Cholecystokinin receptor type A (Homo sapiens); assay: (§3) Agonist activity at human CCK1R expressed in human 1321N1 cells assessed as IP1 accumulation after 1 hr by HTRF assay; assay type: functional, cell-based
[6] = target: T3, Gastrin/cholecystokinin type B receptor (Homo sapiens); assay: (§4) Agonist activity at human CCK2R expressed in human 1321N1 cells assessed as IP1 accumulation after 1 hr by HTRF assay; assay type: functional, cell-based
[7] = target: T1, Cholecystokinin receptor type A; assay: as §3; assay type: functional, cell-based
[8] = target: T4, Gastrin/cholecystokinin type B receptor (Homo sapiens, UniProt P32239); assay: as §2
T4 sequence (P32239 whole entry): T3 sequence (whole entry)

[9] = target: T4, Gastrin/cholecystokinin type B receptor; assay: as §4; assay type: functional, cell-based

| SMILES | IC50 [1] | half-life [2] | pIC50 [3] | pIC50 [4] | pEC50 [5] | pEC50 [6] | EC50 [7] | IC50 [8] | EC50 [9] |
| --- | --- | --- | --- | --- | --- | --- | --- | --- | --- |
| CCCC[C@H](NC(=O)[C@H](Cc1c[nH]c2ccccc12)NC(=O)CNC(=O)[C@H](CC(C)C)NC(=O)[C@H](Cc1ccc(OS(=O)(=O)O)cc1)NC(=O)[C@H](CC(=O)O)NC(=O)CCCCCCCCCCCCCCCCC(=O)O)C(=O)N(C)[C@H](CC(=O)O)C(=O)N(C)[C@@H](Cc1ccccc1)C(N)=O | 0.107 nM | 2.6 h |  |  |  |  |  |  |  |
| CCCC[C@H](NC(=O)[C@H](Cc1ccc(CS(=O)(=O)O)cc1)NC(=O)[C@H](CC(=O)O)NC(=O)COCCOCCNC(=O)COCCOCCNC(=O)CC[C@H](NC(=O)CCCCCCCCCCCCCCCCC(=O)O)C(=O)O)C(=O)NCC(=O)N[C@@H](Cc1c[nH]c2ccccc12)C(=O)N[C@@H](CCCC)C(=O)N(C)[C@H](CC(=O)O)C(=O)N(C)[C@@H](Cc1ccccc1)C(=O)O |  |  | inactive | inactive | inactive | inactive |  |  |  |
| CCCC[C@H](NC(=O)[C@H](Cc1ccc(OS(=O)(=O)O)cc1)NC(=O)[C@H](CC(=O)O)NC(=O)COCCOCCNC(=O)COCCOCCNC(=O)CC[C@H](NC(=O)CCCCCCCCCCCCCCCCC(=O)O)C(=O)O)C(=O)NCC(=O)N[C@@H](Cc1c[nH]c2ccccc12)C(=O)N[C@@H](CC(C)C)C(=O)N[C@@H](CC(=O)O)C(=O)N[C@@H](Cc1ccccc1)C(N)=O |  |  | Active | Active | Active | Active |  |  |  |
| CCCC[C@H](NC(=O)[C@H](Cc1c[nH]c2ccccc12)NC(=O)CNC(=O)[C@H](CC(C)C)NC(=O)[C@H](Cc1ccc(CS(=O)(=O)O)cc1)NC(=O)[C@H](CC(=O)O)NC(=O)COCCOCCNC(=O)COCCOCCNC(=O)CC[C@H](NC(=O)CCCCCCCCCCCCC(=O)O)C(=O)O)C(=O)N(C)[C@H](CC(=O)O)C(=O)N(C)[C@@H](Cc1ccccc1)C(N)=O ({C14 diacid-γGlu-AEEA-AEEA}-D[Phe(4-CH2SO3H)]LGW[Nle][dNMeD][NMeF]-NH2) | 0.155 nM | 2 h |  |  |  |  | 0.182 nM |  |  |
| CCCC[C@H](NC(=O)[C@H](Cc1c[nH]c2ccccc12)NC(=O)CNC(=O)[C@H](CC(C)C)NC(=O)[C@H](Cc1ccc(OS(=O)(=O)O)cc1)NC(=O)[C@H](CC(=O)O)NC(=O)COCCOCCNC(=O)COCCOCCNC(=O)CC[C@H](NC(=O)CCCCCCCCCCCCCCCCC(=O)O)C(=O)O)C(=O)N(C)[C@H](CC(=O)O)C(=O)N(C)[C@@H](Cc1cccc2ccccc12)C(N)=O ({C18 diacid-γGlu-AEEA-AEEA}-D[sY]LGW[Nle][dNMeD][NMe1Nal]-NH2) |  | 147 h |  |  |  |  | 0.407 nM | 2040 nM | 151 nM |
| CCCC[C@H](NC(=O)[C@H](Cc1ccc(OS(=O)(=O)O)cc1)NC(=O)[C@H](CC(=O)O)NC(=O)COCCOCCNC(=O)COCCOCCNC(=O)CC[C@H](NC(=O)CCCCCCCCCCCCCCCCC(=O)O)C(=O)O)C(=O)NCC(=O)N[C@@H](Cc1c[nH]c2ccccc12)C(=O)N[C@@H](C)C(=O)N[C@@H](CC(=O)O)C(=O)N[C@@H](Cc1ccccc1)C(N)=O ({C18 diacid-γGlu-AEEA-AEEA}-D[sY][Nle]GWADF-NH2) |  |  | inactive | inactive | inactive | inactive |  |  |  |
| CCCC[C@H](NC(=O)[C@H](Cc1ccc(OS(=O)(=O)O)cc1)NC(=O)[C@H](CC(=O)O)NC(=O)COCCOCCNC(=O)COCCOCCNC(=O)CC[C@H](NC(=O)CCCCCCCCCCCCCCCCC(=O)O)C(=O)O)C(=O)NCC(=O)N[C@@H](Cc1c[nH]c2ccccc12)C(=O)N[C@@H](CCC(=O)O)C(=O)N[C@@H](CC(=O)O)C(=O)N[C@@H](Cc1ccccc1)C(N)=O ({C18 diacid-γGlu-AEEA-AEEA}-D[sY][Nle]GWEDF-NH2) |  |  | inactive | inactive | inactive | inactive |  |  |  |
| CCCC[C@H](NC(=O)[C@H](Cc1ccc(OS(=O)(=O)O)cc1)NC(=O)[C@H](CC(=O)O)NC(=O)COCCOCCNC(=O)COCCOCCNC(=O)CC[C@H](NC(=O)CCCCCCCCCCCCCCCCC(=O)O)C(=O)O)C(=O)NCC(=O)N[C@@H](Cc1c[nH]c2ccccc12)C(=O)N[C@@H](Cc1ccccc1)C(=O)N[C@@H](CC(=O)O)C(=O)N[C@@H](Cc1ccccc1)C(N)=O ({C18 diacid-γGlu-AEEA-AEEA}-D[sY][Nle]GWFDF-NH2) |  |  | inactive | inactive | inactive | inactive |  |  |  |
| CCCC[C@H](NC(=O)[C@H](Cc1ccc(OS(=O)(=O)O)cc1)NC(=O)[C@H](CC(=O)O)NC(=O)COCCOCCNC(=O)COCCOCCNC(=O)CC[C@H](NC(=O)CCCCCCCCCCCCCCCCC(=O)O)C(=O)O)C(=O)NCC(=O)N[C@@H](Cc1c[nH]c2ccccc12)C(=O)N[C@@H](CCCCN)C(=O)N[C@@H](CC(=O)O)C(=O)N[C@@H](Cc1ccccc1)C(N)=O ({C18 diacid-γGlu-AEEA-AEEA}-D[sY][Nle]GWKDF-NH2) |  |  | inactive | inactive | inactive | inactive |  |  |  |
| CCCC[C@H](NC(=O)[C@H](Cc1ccc(OS(=O)(=O)O)cc1)NC(=O)[C@H](CC(=O)O)NC(=O)COCCOCCNC(=O)COCCOCCNC(=O)CC[C@H](NC(=O)CCCCCCCCCCCCCCCCC(=O)O)C(=O)O)C(=O)NCC(=O)N[C@@H](Cc1c[nH]c2ccccc12)C(=O)N[C@@H](CCCC)C(=O)N(C)[C@@H](CC(=O)O)C(=O)N[C@@H](Cc1cccc2ccccc12)C(N)=O ({C18 diacid-γGlu-AEEA-AEEA}-D[sY][Nle]GW[Nle][NMeD][1Nal]-NH2) | 0.0794 nM |  |  |  |  |  | 0.501 nM | 115 nM | 1.86 nM |
| CCCC[C@H](NC(=O)[C@H](Cc1ccc(OS(=O)(=O)O)cc1)NC(=O)[C@H](CC(=O)O)NC(=O)COCCOCCNC(=O)COCCOCCNC(=O)CC[C@H](NC(=O)CCCCCCCCCCCCCCCCC(=O)O)C(=O)O)C(=O)NCC(=O)N[C@@H](Cc1c[nH]c2ccccc12)C(=O)N[C@@H](CCCC)C(=O)N(C)[C@H](CC(=O)O)C(=O)N[C@@H](Cc1cccc2ccccc12)C(N)=O ({C18 diacid-γGlu-AEEA-AEEA}-D[sY][Nle]GW[Nle][dNMeD][1Nal]-NH2) | 0.0741 nM | 140 h |  |  |  |  | 0.363 nM |  | 89.1 nM |
| CCCC[C@H](NC(=O)[C@H](Cc1c[nH]c2ccccc12)NC(=O)[C@H](CCCCN)NC(=O)[C@H](CCCC)NC(=O)[C@H](Cc1ccc(OS(=O)(=O)O)cc1)NC(=O)[C@H](CC(=O)O)NC(=O)COCCOCCNC(=O)COCCOCCNC(=O)CC[C@H](NC(=O)CCCCCCCCCCCCCCCCC(=O)O)C(=O)O)C(=O)N[C@@H](CC(=O)O)C(=O)N[C@@H](Cc1ccccc1)C(N)=O ({C18 diacid-γGlu-AEEA-AEEA}-D[sY][Nle]KW[Nle]DF-NH2) | 2570 nM |  |  |  |  |  | 912 nM | 13.5 nM | 0.832 nM |
| CCCC[C@H](NC(=O)[C@H](Cc1c[nH]c2ccccc12)NC(=O)[C@@H]1CCCN1C(=O)[C@H](CCCC)NC(=O)[C@H](Cc1ccc(OS(=O)(=O)O)cc1)NC(=O)[C@H](CC(=O)O)NC(=O)COCCOCCNC(=O)COCCOCCNC(=O)CC[C@H](NC(=O)CCCCCCCCCCCCCCCCC(=O)O)C(=O)O)C(=O)N[C@@H](CC(=O)O)C(=O)N[C@@H](Cc1ccccc1)C(N)=O ({C18 diacid-γGlu-AEEA-AEEA}-D[sY][Nle]PW[Nle]DF-NH2) | 933 nM |  |  |  |  |  | 603 nM | 0.589 nM | 0.38 nM |
| CCCC[C@H](NC(=O)[C@H](Cc1c[nH]c2ccccc12)NC(=O)CNC(=O)[C@H](CC(C)C)NC(=O)[C@H](Cc1ccc(CS(=O)(=O)O)cc1)NC(=O)[C@H](CC(=O)O)NC(=O)COCCOCCNC(=O)COCCOCCNC(=O)CC[C@H](NC(=O)CCCCCCCCCCCCCCCCCCC(=O)O)C(=O)O)C(=O)N(C)[C@H](CC(=O)O)C(=O)N(C)[C@@H](Cc1ccccc1)C(N)=O ({C20 diacid-γGlu-AEEA-AEEA}-D[Phe(4-CH2SO3H)]LGW[Nle][dNMeD][NMeF]-NH2) | 0.0407 nM | 153 h |  |  |  |  | 0.372 nM |  |  |
| CCCC[C@H](NC(=O)Cc1ccc(OS(=O)(=O)O)cc1)C(=O)NCC(=O)N[C@@H](Cc1c[nH]c2ccccc12)C(=O)N[C@@H](CCCC)C(=O)N(C)[C@H](CC(=O)O)C(=O)N[C@@H](Cc1ccccc1)C(N)=O ({Phenylacetyl(4-OSO3H)}-[Nle]GW[Nle][dNMeD]F-NH2) | 0.0447 nM |  |  |  |  |  | 0.0251 nM | 7410 nM | > 1000 nM |
